Laboratory results published in patent publication US10883936B2, “Analysis of viable and nonviable cells” (SageMedic Corporation, priority 2018, dated 2021).

Key:
[1] = system: ovarian cancer primary tumor cells; test: Confocal fluorescent microscopy of dyed primary tumor cells, dye combinations and addition sequences (Example 1); format: cell-based
Description: A 96 round bottom well plate was seeded with a single cell suspension of about 2,500 ovarian cancer primary tumor cells/20 μl/well at day 0. In each well, 80 μl of DMEM/2% alpha serum was added on top to the total volume of 100 μl/well. Dyes were prepared at 2-fold the desired final concentrations on the day of imaging. At day 3, 100 μL of dyeing mix was carefully added to each well to avoid disturbing the cells, to a final 1-fold concentration of dyes. Cells were incubated with dyes at 37° C. For this example, the dyes used were a membrane-permeable fluorescent dye (CYQUANT® GR, Thermo Fisher Scientific, Waltham, Mass.) and a membrane-impermeable fluorescent quenching dye (DRAQ7™, Thermo Fisher Scientific, Waltham, Mass.). The following dye combinations and sequences of dye addition were tested in triplicates, and similar results were seen among the triplicates. FIGS. 1A-1G show exemplary results of the dye combination and addition sequences, as follows.
FIG. 1A is a confocal fluorescent microscopy image of a sample prepared by incubation with the membrane-impermeable fluorescent quenching dye for 30 min followed by addition of the masking agent (Diammonium 5-[(E)-(4-acetamido-2-sulfonatophenyl)diazenyl]-6-amino-4-hydroxy-2-naphthalenesulfonate; CAS Reg. No. 302912-22-7, Thermo Fischer Scientific, Waltham, Mass.) and incubation for an additional 1 h.
FIG. 1B is a confocal fluorescent microscopy image of a sample prepared by incubation with the membrane-impermeable fluorescent quenching dye for 30 min.
FIG. 1C is a confocal fluorescent microscopy image of a sample prepared by incubation with the membrane-impermeable fluorescent quenching dye for 30 min, followed by addition of the membrane-permeable fluorescent dye and incubation for an additional 1 h.
FIG. 1D is a confocal fluorescent microscopy image of a sample prepared by incubation with the membrane-impermeable fluorescent quenching dye for 30 min, followed by addition of the membrane-permeable fluorescent dye and masking reagent and incubation for an additional 1 h.
FIG. 1E is a confocal fluorescent microscopy image of a sample prepared by incubation with the membrane-permeable fluorescent dye alone for 1 h.
FIG. 1F is a confocal fluorescent microscopy image of a sample prepared by incubation with the membrane-permeable fluorescent dye alone for 1 h, followed by addition of the membrane-impermeable fluorescent quenching dye and incubation for an additional 30 min.
FIG. 1G is a confocal fluorescent microscopy image of a sample prepared by incubation with the membrane-permeable fluorescent dye and masking reagent for 1 h, followed by addition of the membrane-impermeable fluorescent quenching dye and incubation for an additional 30 min.

[2] = system: ovarian cancer primary tumor cells; test: Dynamic confocal fluorescent microscopy after adding quenching dye to cells pre-dyed with membrane-permeable dye (Example 2); format: cell-based; details: for change of fluorescence intensity over time: 0-45 min after addition of quenching dye; for dyeing of the nonviable cells: by 45 min after addition of quenching dye
Description: In order to further examine the dyeing behavior and kinetics of the membrane-impermeable fluorescent quenching dye and the membrane-permeable fluorescent dye of Example 1 when mixed together, an additional experiment was performed on day 7 of culture as follows.
On day 7, 20 μL of the membrane-permeable fluorescent dye was added at 6× concentration to each well. The cells were incubated with dye at 37° C. for 1 hour. Confocal fluorescent microscopy was performed after incubation. About 20 μL of the membrane-impermeable fluorescent quenching dye was added directly to the same well on the stage at 6× concentration without disturbing the cells.
Dynamic confocal fluorescent microscopy images were taken of the cells immediately after addition of the membrane-impermeable fluorescent quenching dye (FIG. 2A, 2B), as well as at 5 min (FIG. 2C, 2D), 20 min (FIG. 2E, 2F), 30 min (FIG. 2G, 2H) and 45 min (FIG. 2I, 2J) after addition.

[3] = FIG. 1C: quenching dye 30 min, then membrane-permeable dye, additional 1 h
[4] = FIG. 1D: quenching dye 30 min, then membrane-permeable dye and masking reagent, additional 1 h
[5] = FIG. 1F: membrane-permeable dye 1 h, then quenching dye, additional 30 min
[6] = FIG. 1G: membrane-permeable dye and masking reagent 1 h, then quenching dye, additional 30 min

Compound	signal observed by confocal fluorescent microscopy [1, 3]	signal observed by confocal fluorescent microscopy [1, 4]	signal observed by confocal fluorescent microscopy ([1]; FIG. 1E: membrane-permeable fluorescent dye alone, 1 h, 37° C.)	signal observed by confocal fluorescent microscopy [1, 5]	signal observed by confocal fluorescent microscopy [1, 6]	cells dyed by the dye alone ([1]; dye alone)	change of fluorescence intensity over time [2]	dyeing of the nonviable cells [2]	signal observed by confocal fluorescent microscopy ([1]; FIG. 1A: quenching dye 30 min, then masking agent, additional 1 h)	signal observed by confocal fluorescent microscopy ([1]; FIG. 1B: membrane-impermeable fluorescent quenching dye alone, 30 min, 37° C., day 3)	time after addition of the dye at which the brightest images (fluorescence intensity) were acquired ([2]; day 7, FIG. 2I, 2J) [min]	time after addition at which green cells becoming red is visually noticeable ([2]; day 7, membrane-permeable dye 1 hour at 37° C., then quenching dye added) [min]
CYQUANT® GR [membrane-permeable fluorescent dye]	discrete green signals	discrete green signals were observed	discrete green signals were observed	discrete green signals	discrete green signals were observed	dyed both viable and nonviable cells	significant decrease over time	negligible				
CC(=O)Nc1ccc(/N=N/c2c(N)ccc3cc(S(=O)(=O)O)cc(O)c23)c(S(=O)(=O)O)c1.N.N [masking agent, Diammonium 5-[(E)-(4-acetamido-2-sulfonatophenyl)diazenyl]-6-amino-4-hydroxy-2-naphthalenesulfonate]		No red signal was observed			No red signal was observed				no signal was observed			
DRAQ7™	discrete red signals were observed			discrete red signals were observed			increase over time	positive		discrete red signals were observed	45	20 to 30
